Results published in paper PMC8482771 (ACS Omega, 2021).
Like-named read-outs stand apart in the source and are kept apart here.

Columns and labels:
Assay type in all cases: cell-based
h-P2X7R [1] = molecular target: T1, h-P2X7R (Homo sapiens, UniProt Q99572)
T1 sequence (Q99572 1-595): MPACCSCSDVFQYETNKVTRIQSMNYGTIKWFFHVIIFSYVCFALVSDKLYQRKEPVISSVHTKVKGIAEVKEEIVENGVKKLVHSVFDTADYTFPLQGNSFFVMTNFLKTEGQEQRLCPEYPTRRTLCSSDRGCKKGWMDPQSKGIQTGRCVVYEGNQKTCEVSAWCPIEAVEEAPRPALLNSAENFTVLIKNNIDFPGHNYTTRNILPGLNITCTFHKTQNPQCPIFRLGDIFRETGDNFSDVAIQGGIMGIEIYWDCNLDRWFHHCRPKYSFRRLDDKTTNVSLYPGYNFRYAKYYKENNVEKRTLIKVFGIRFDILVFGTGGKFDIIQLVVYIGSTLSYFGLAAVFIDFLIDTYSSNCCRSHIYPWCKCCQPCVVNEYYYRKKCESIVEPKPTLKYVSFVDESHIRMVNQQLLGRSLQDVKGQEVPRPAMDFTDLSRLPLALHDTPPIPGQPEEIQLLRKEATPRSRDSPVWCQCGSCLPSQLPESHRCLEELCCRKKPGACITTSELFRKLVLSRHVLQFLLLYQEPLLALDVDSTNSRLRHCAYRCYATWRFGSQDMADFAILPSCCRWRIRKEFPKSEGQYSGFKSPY

Cytotoxicity assay = settings: human, nontransfected 1321N1 astrocytoma cells
h-P2X2R [2] = molecular target: T2, h-P2X2R (Homo sapiens, UniProt Q9UBL9); experiment: Ca2+ influx assay; settings: for inhibition at 50 µM: 1321-N1, read-out: h-P2X2 % inhibition; for activity against h-P2X2 receptor (in words): SAR statement
T2 sequence (Q9UBL9 1-471): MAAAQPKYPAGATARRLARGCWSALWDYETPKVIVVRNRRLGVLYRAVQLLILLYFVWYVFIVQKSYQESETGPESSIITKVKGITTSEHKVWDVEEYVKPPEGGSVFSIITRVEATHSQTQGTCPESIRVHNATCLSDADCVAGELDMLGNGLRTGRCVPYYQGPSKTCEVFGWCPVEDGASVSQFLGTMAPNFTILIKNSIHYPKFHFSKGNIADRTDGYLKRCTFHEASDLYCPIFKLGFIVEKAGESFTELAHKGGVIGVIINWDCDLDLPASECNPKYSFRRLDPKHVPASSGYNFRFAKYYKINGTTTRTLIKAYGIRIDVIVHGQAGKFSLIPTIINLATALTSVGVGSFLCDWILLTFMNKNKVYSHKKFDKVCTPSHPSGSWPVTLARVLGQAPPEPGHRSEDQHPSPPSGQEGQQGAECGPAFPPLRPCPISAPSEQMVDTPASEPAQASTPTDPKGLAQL

h-P2X7R [3] = molecular target: T1, h-P2X7R; experiment: Ca2+ influx assay; settings: for inhibition at 50 µM: 1321-N1, read-out: h-P2X7 % inhibition
h-P2X5 receptor = h-P2X5 receptor (Homo sapiens, UniProt Q93086); experiment: Ca2+ influx assay; settings: for inhibition at 50 µM: 1321-N1, read-out: h-P2X5 % inhibition
h-P2X4R [4] = molecular target: T3, h-P2X4R (Homo sapiens, UniProt Q99571); experiment: Ca2+ influx assay; settings: for inhibition at 50 µM: 1321-N1, read-out: h-P2X4 % inhibition
T3 sequence (Q99571 1-388): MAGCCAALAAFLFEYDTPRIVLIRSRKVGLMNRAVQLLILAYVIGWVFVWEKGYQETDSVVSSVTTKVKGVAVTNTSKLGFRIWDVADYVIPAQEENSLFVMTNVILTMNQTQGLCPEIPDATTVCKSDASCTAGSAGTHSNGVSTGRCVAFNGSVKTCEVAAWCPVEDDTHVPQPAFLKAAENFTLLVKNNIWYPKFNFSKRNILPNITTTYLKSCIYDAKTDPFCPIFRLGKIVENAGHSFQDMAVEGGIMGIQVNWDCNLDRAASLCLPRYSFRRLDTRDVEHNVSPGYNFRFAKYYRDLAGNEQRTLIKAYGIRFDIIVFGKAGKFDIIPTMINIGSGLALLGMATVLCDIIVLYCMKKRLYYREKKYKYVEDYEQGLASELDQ

h-P2X2R [5] = molecular target: T2, h-P2X2R; experiment: Mode of inhibition: ATP dose-response curve without and with inhibitor, h-P2X2R; settings: h-P2X2
h-P2X4R [6] = molecular target: T3, h-P2X4R; experiment: Mode of inhibition: ATP dose-response curve without and with inhibitor, h-P2X4R; settings: h-P2X4R

h-P2X5 receptor, sequence (Q93086 whole entry): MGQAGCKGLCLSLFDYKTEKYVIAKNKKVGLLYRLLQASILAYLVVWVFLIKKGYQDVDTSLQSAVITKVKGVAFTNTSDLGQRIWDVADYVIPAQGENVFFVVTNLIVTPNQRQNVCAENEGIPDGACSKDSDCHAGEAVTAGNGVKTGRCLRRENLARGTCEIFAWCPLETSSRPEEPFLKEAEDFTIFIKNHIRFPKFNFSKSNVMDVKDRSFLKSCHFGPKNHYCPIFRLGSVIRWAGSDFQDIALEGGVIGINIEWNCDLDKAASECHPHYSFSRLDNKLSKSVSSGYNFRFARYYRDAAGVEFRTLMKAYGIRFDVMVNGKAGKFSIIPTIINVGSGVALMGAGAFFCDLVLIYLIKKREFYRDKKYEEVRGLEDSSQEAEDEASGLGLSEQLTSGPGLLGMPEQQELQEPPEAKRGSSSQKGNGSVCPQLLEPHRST

| Compound | EC50 (h-P2X7R [1]; read-out: EC50 of BzATP-induced response, BzATP without inhibitor) | cytotoxicity at 24 h, 50 µM (Cytotoxicity assay) | IC50 (h-P2X2R [2]) | inhibition at 50 µM (h-P2X2R [2]) | IC50 (h-P2X7R [3]) | IC50 (h-P2X5 receptor) | inhibition at 50 µM (h-P2X5 receptor) | IC50 (h-P2X4R [4]) | inhibition at 50 µM (h-P2X4R [4]) | activity against h-P2X2 receptor (in words) (h-P2X2R [2]) | inhibition at 50 µM (h-P2X7R [3]) | mechanism of receptor inhibition (h-P2X7R [1]) | mechanism of receptor inhibition (h-P2X2R [5]) | activity against h-P2X4 receptor (in words) (h-P2X4R [4]; SAR statement) | mechanism of receptor inhibition (h-P2X4R [6]) | IC50 (h-P2X5 receptor; read-out: h-P2X5 IC50 ± SEM, Ca2+ influx, ATP at EC80, n = 3) |
| --- | --- | --- | --- | --- | --- | --- | --- | --- | --- | --- | --- | --- | --- | --- | --- | --- |
| 2′/3′-O-(4-benzoylbenzoyl)adenosine-5′-triphosphate [BzATP, reference compound] | 5.5 µM |  |  |  |  |  |  |  |  |  |  |  |  |  |  |  |
| CC(=NNC(=O)c1ccccc1NS(C)(=O)=O)c1ccccc1 [6a, N-(2-(2-(1-Phenylethylidene)hydrazinecarbonyl)phenyl)methanesulfonamide] |  | 14 ± 0.21% | > 50 µM | 20% | 4.21 ± 0.01 µM | > 50 µM | 20% | > 50 µM | 46% |  |  |  |  |  |  |  |
| CC(=NNC(=O)c1ccccc1NS(C)(=O)=O)c1ccccc1F [6b, N-(2-(2-(1-(2-Fluorophenyl)ethylidene)hydrazinecarbonyl)phenyl)methanesulfonamide] |  | 11.4 ± 0.57% | 1.91 ± 0.03 µM |  |  | > 50 µM | 16% | > 50 µM | 40% |  |  |  |  |  |  |  |
| CC(=NNC(=O)c1ccccc1NS(C)(=O)=O)c1cccc(Br)c1 [6c, N-(2-(2-(1-(3-Bromophenyl)ethylidene)hydrazinecarbonyl)phenyl)methanesulfonamide] |  | 15.1 ± 0.44% | > 50 µM | 0% | 5.54 ± 0.05 µM | > 50 µM | 0% | > 50 µM | 24% | loss of activity |  |  |  |  |  |  |
| CC(=NNC(=O)c1ccccc1NS(C)(=O)=O)c1ccc(Cl)cc1 [6d, N-(2-(2-(1-(4-Chlorophenyl)ethylidene)hydrazinecarbonyl)phenyl)methanesulfonamide] |  | 6.96 ± 0.8% | > 50 µM | 15% | > 50 µM | > 50 µM | 42% | > 50 µM | 18% | loss of activity | 48% |  |  |  |  |  |
| CC(=NNC(=O)c1ccccc1NS(C)(=O)=O)c1ccc(Br)cc1 [6e, N-(2-(2-(1-(4-Bromophenyl)ethylidene)hydrazinecarbonyl)phenyl)methanesulfonamide] |  | 16.8 ± 1.1% | 3.22 ± 0.05 µM |  | > 50 µM | > 50 µM | 10% | > 50 µM | 0% |  | 34% |  |  |  |  |  |
| CC(=NNC(=O)c1ccccc1NS(C)(=O)=O)c1ccc(I)cc1 [6f, N-(2-(2-(1-(4-Iodophenyl)ethylidene)hydrazinecarbonyl)phenyl)methanesulfonamide] |  | 8.31 ± 0.33% | 3.52 ± 0.07 µM |  | 10.01 ± 0.07 µM | > 50 µM | 21% | > 50 µM | 32% |  |  |  |  |  |  |  |
| COc1ccc(C(C)=NNC(=O)c2ccccc2NS(C)(=O)=O)cc1 [6g, N-(2-(2-(1-(4-Methoxyphenyl)ethylidene)hydrazinecarbonyl)phenyl)methanesulfonamide] |  | 5.29 ± 0.72% | 3.48 ± 0.04 µM |  | 2.09 ± 0.13 µM | > 50 µM | 26% | > 50 µM | 45% |  |  |  |  |  |  |  |
| CC(=NNC(=O)c1ccccc1NS(C)(=O)=O)c1ccc(N)cc1 [6h, N-(2-(2-(1-(4-Aminophenyl)ethylidene)hydrazinecarbonyl)phenyl)methanesulfonamide] |  | 18.5 ± 1.22% | 0.32 ± 0.01 µM |  | 1.1 ± 0.21 µM | > 50 µM | 10% | > 50 µM | 34% |  |  | negative allosteric modulator | negative allosteric modulator |  |  |  |
| CC(=NNC(=O)c1ccccc1NS(C)(=O)=O)c1cccs1 [7a, N-(2-(2-(1-(Thiophen-2-yl)ethylidene)hydrazinecarbonyl)phenyl)methanesulfonamide] |  | 11.6 ± 0.89% | 1.57 ± 0.01 µM |  | > 50 µM | > 50 µM | 29% | > 50 µM | 24% |  | 45% |  |  | inactive |  |  |
| CC(=NNC(=O)c1ccccc1NS(C)(=O)=O)c1sccc1C [7b, N-(2-(2-(1-(3-Methylthiophen-2-yl)ethylidene)hydrazinecarbonyl)phenyl)methanesulfonamide] |  | 10.7 ± 0.54% | 1.8 ± 0.02 µM |  | > 50 µM | > 50 µM | 12% | > 50 µM | 8% |  | 47% |  |  |  |  |  |
| CC(=NNC(=O)c1ccccc1NS(C)(=O)=O)c1cc(C)cs1 [7c, N-(2-(2-(1-(4-Methylthiophen-2-yl)ethylidene)hydrazinecarbonyl)phenyl)methanesulfonamide] |  | 5.98 ± 0.09% | 1.59 ± 0.01 µM |  | 8.94 ± 0.01 µM | > 50 µM | 31% | 3.89 ± 0.05 µM |  |  |  |  |  |  |  |  |
| CC(=NNC(=O)c1ccccc1NS(C)(=O)=O)c1ccc(C)s1 [7d, N-(2-(2-(1-(5-Methylthiophen-2-yl)ethylidene)hydrazinecarbonyl)phenyl)methanesulfonamide] |  | 1.57 ± 0.11% | 2.03 ± 0.04 µM |  | 4.53 ± 0.11 µM | > 50 µM | 46% | 3.21 ± 0.01 µM |  |  |  |  |  |  |  |  |
| CC(=NNC(=O)c1ccccc1NS(C)(=O)=O)c1sccc1Cl [7e, N-(2-(2-(1-(3-Chlorothiophen-2-yl)ethylidene)hydrazinecarbonyl)phenyl)methanesulfonamide] |  | 8.33 ± 0.8% | 2.17 ± 0.02 µM |  | 1.7 ± 0.09 µM | > 50 µM | 27% | 1.61 ± 0.04 µM |  |  |  |  |  |  | negative allosteric modulator |  |
| CC(=NNC(=O)c1ccccc1NS(C)(=O)=O)c1ccc(Cl)s1 [7f, N-(2-(2-(1-(5-Chlorothiophen-2-yl)ethylidene)hydrazinecarbonyl)phenyl)methanesulfonamide] |  | 11.6 ± 0.26% | > 50 µM | 37% | 1.16 ± 0.03 µM | > 50 µM | 0% | 4.03 ± 0.07 µM |  |  |  |  |  |  |  |  |
| CC(=NNC(=O)c1ccccc1NS(C)(=O)=O)c1ccc([N+](=O)[O-])s1 [7g, N-(2-(2-(1-(5-Nitrothiophen-2-yl)ethylidene)hydrazinecarbonyl)phenyl)methanesulfonamide] |  | 23.8 ± 2.15% | > 50 µM | 26% | 6.8 ± 0.21 µM | > 50 µM | 19% | 2.44 ± 0.1 µM |  |  |  |  |  |  |  |  |
| Nc1c(S(=O)(=O)O)cc(Nc2ccc(Nc3nc(Cl)nc(Nc4cccc(S(=O)(=O)O)c4)n3)c(S(=O)(=O)O)c2)c2c1C(=O)c1ccccc1C2=O [RB-2, Reactive Blue 2, reference compound] |  |  | 0.89 ± 0.41 µM |  | 2.79 ± 0.22 µM |  |  |  |  |  |  |  |  |  |  |  |
| Cc1ccc(C(=O)Nc2ccc(S(=O)(=O)O)c3cc(S(=O)(=O)O)cc(S(=O)(=O)O)c23)cc1NC(=O)c1cccc(NC(=O)Nc2cccc(C(=O)Nc3cc(C(=O)Nc4ccc(S(=O)(=O)O)c5cc(S(=O)(=O)O)cc(S(=O)(=O)O)c45)ccc3C)c2)c1 [Suramin, reference compound] |  |  |  |  |  |  |  |  |  |  |  |  |  |  |  | 16.1 ± 0.5 µM |
